Results: the supplement of paper PMC10307832

Assays:
Assay in all cases: relative viability (nuclei count vs DMSO), 5 days (fraction); higher = more cells survive
ALW-II-49-7 + Vorinostat = compound: Cc1ccc(C(=O)Nc2cccc(C(F)(F)F)c2)cc1Nc1cncc(C(N)=O)c1 [ALW-II-49-7] + O=C(CCCCCCC(=O)Nc1ccccc1)NO [Vorinostat] (partner 1 µM)
Method in brief: (§1)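 Values are medians from duplicate plates. Each reflects relative viability, defined as the nuclei count of treated wells over that of vehicle wells. Lung cancer cell lines in 1536-well plates were pin-tool dosed one day after seeding with one drug alone or with a fixed anchor-drug dose plus five library-drug doses (not always all listed) in √10 steps, then fixed, stained and imaged at 4× after 5 days.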

Dasatinib + Palbociclib = compound: Cc1nc(Nc2ncc(C(=O)Nc3c(C)cccc3Cl)s2)cc(N2CCN(CCO)CC2)n1 [Dasatinib] + CC(=O)c1c(C)c2cnc(Nc3ccc(N4CCNCC4)cn3)nc2n(C2CCCC2)c1=O [Palbociclib] (partner 0.5 µM)
Method in brief: as §1

XMD13-2 + Dasatinib = compound: C1CC1C(=O)NC2=NNC3=C2C=CC(=C3)C4=CC(=CC=C4)C(=O)NC5CC5 [XMD13-2] + Cc1nc(Nc2ncc(C(=O)Nc3c(C)cccc3Cl)s2)cc(N2CCN(CCO)CC2)n1 [Dasatinib] (partner 0.075 µM)
Method in brief: as §1

Dasatinib + Pemetrexed = compound: Cc1nc(Nc2ncc(C(=O)Nc3c(C)cccc3Cl)s2)cc(N2CCN(CCO)CC2)n1 [Dasatinib] + Nc1nc2[nH]cc(CCc3ccc(C(=O)N[C@@H](CCC(=O)O)C(=O)O)cc3)c2c(=O)[nH]1 [Pemetrexed] (partner 0.2 µM)
Method in brief: as §1

Cell Line | relative viability (ALW-II-49-7 + Vorinostat; first compound 0.08 µM) | relative viability (ALW-II-49-7 + Vorinostat; first compound 0.253 µM) | relative viability (ALW-II-49-7 + Vorinostat; first compound 0.8 µM) | relative viability (ALW-II-49-7 + Vorinostat; first compound 2.53 µM) | relative viability (ALW-II-49-7 + Vorinostat; first compound 8 µM) | relative viability (Dasatinib + Palbociclib; first compound 0.005 µM) | relative viability (Dasatinib + Palbociclib; first compound 0.01581 µM) | relative viability (Dasatinib + Palbociclib; first compound 0.05 µM) | relative viability (Dasatinib + Palbociclib; first compound 0.1581 µM) | relative viability (Dasatinib + Palbociclib; first compound 0.5 µM) | relative viability (XMD13-2 + Dasatinib; first compound 0.05 µM) | relative viability (XMD13-2 + Dasatinib; first compound 0.1581 µM) | relative viability (XMD13-2 + Dasatinib; first compound 0.5 µM) | relative viability (XMD13-2 + Dasatinib; first compound 1.581 µM) | relative viability (XMD13-2 + Dasatinib; first compound 5 µM) | relative viability (Dasatinib + Pemetrexed; first compound 0.005 µM) | relative viability (Dasatinib + Pemetrexed; first compound 0.01581 µM) | relative viability (Dasatinib + Pemetrexed; first compound 0.05 µM) | relative viability (Dasatinib + Pemetrexed; first compound 0.1581 µM) | relative viability (Dasatinib + Pemetrexed; first compound 0.5 µM)
ChaGo-K-1 | 0.744 | 0.75 | 0.713 | 0.689 | 0.83 | 0.947 | 0.881 | 0.892 | 0.802 | 0.634 | 0.651 | 0.533 | 0.604 | 0.602 | 0.517 | 0.256 | 0.255 | 0.254 | 0.244 | 0.235
EKVX | 0.407 | 0.747 | 0.734 | 0.678 | 0.636 | 0.412 | 0.319 | 0.332 | 0.199 | 0.13 | 0.591 | 0.445 | 0.548 | 0.594 | 0.497 | 0.384 | 0.376 | 0.335 | 0.371 | 0.152
EMC-BAC-2 | 0.462 | 0.419 | 0.301 | 0.409 | 0.281 | 0.507 | 0.424 | 0.417 | 0.319 | 0.243 | 0.32 | 0.323 | 0.202 | 0.302 | 0.25 | 0.455 | 0.42 | 0.405 | 0.345 | 0.273
HCC-44 | 1.14 | 1.11 | 1.11 | 1.12 | 1.09 | 1.07 | 0.878 | 1.06 | 1.14 | 1.29 |  |  |  |  |  | 0.627 | 0.579 | 0.692 | 0.709 | 0.633
IA-LM | 0.998 | 0.613 | 0.745 | 0.29 | 0.423 |  |  |  |  |  |  |  |  |  |  |  |  |  |  | 
NCI-H596 | 0.488 | 0.574 | 0.586 | 0.683 | 0.456 |  |  |  |  |  | 0.683 | 0.571 | 0.578 | 0.713 | 0.664 | 0.486 | 0.47 | 0.439 | 0.415 | 0.359
NCI-H727 | 1.16 | 1.33 | 1.02 | 1.14 | 1.12 | 0.553 | 0.455 | 0.523 | 0.388 | 0.281 | 0.383 | 0.344 | 0.38 | 0.478 | 0.426 |  |  |  |  | 
NCI-H1563 |  |  |  |  |  |  |  |  |  |  | 0.485 | 0.435 | 0.43 | 0.436 | 0.506 | 0.684 | 0.625 | 0.487 | 0.458 | 0.4
NCI-H1623 |  |  |  |  |  |  |  |  |  |  | 0.533 | 0.52 | 0.467 | 0.526 | 0.585 |  |  |  |  | 
NCI-H1648 | 0.346 | 0.298 | 0.287 | 0.327 | 0.425 | 0.281 | 0.29 | 0.334 | 0.298 | 0.243 |  |  |  |  |  | 0.454 | 0.716 | 0.936 | 0.699 | 0.239
NCI-H1792 |  |  |  |  |  | 0.685 | 0.639 | 0.566 | 0.429 | 0.271 | 0.966 | 1.03 | 0.798 | 0.971 | 0.829 | 0.709 | 0.672 | 0.605 | 0.267 | 0.067
